Results as given in patent US20190060249A1 (priority 2017, published 2019).

Key:
ALDH3A2 = ALDH3A2 (Homo sapiens, UniProt P51648); experiment: ALDH enzymatic assay, recombinant ALDH3A2; assay type: biochemical; details: 5 μg/ml recombinant enzyme, 10 mM acetaldehyde, 20 μM Alda-341
Procedure: (§1) ALDH enzymatic assay: ALDH1A1, ALDH1A2, 2, 3A1, 3A2, 4A1, 5A1, 7A1 were measured as previously described using 5 μg/ml of recombinant protein (Chen, C. H., Cruz, L. A., and Mochly-Rosen, D. (2015) Pharmacological recruitment of aldehyde dehydrogenase 3A1 (ALDH3A1) to assist ALDH2 in acetaldehyde and ethanol metabolism in vivo. Proceedings of the National Academy of Sciences of the United States of America 112, 3074-3079). […] Assays were conducted in 50 mM NaPPi buffer (pH 7.4) in the presence of 2.5 mM NAD^+ and 10 mM substrate and measured in triplicate at 25° C. Dose response curve fits and EC50's were calculated using GraphPad Prism 7 software.

[1] = system: intact SMG from CD-1 E13.5 embryos; experiment: DarkZone dye aldehyde assay in intact E13.5 embryonic SMG; assay type: cell-based, mouse; details: 25 μM Alda-341 for 24 h, 4 Gy, 3 h after radiation
Procedure: DarkZone dye aldehyde assay in intact E13.5 embryonic SMG: E13.5 embryonic whole SMG were manually dissected and cultured in DMEM/F12 with 50 ug/mL transferrin and 50 ug/mL Vitamin C for 24 h. Glands were irradiated with 4 or 8 Gy and incubated with 20 uM DarkZone fluorescein aldehyde dye and 10 mM 2,4-Dimethoxyaniline catalyst (TCI America) for 1 h (Yuen, L. H., Saxena, N. S., Park, H. S., Weinberg, K., and Kool, E. T. (2016) Dark Hydrazone Fluorescence Labeling Agents Enable Imaging of Cellular Aldehydic Load. ACS chemical biology 11, 2312-2319). Glands were imaged 3 h after radiation using a Keyence BZ-X710 microscope GFP filter at 10× magnification. Average fluorescence intensity was quantified using Image J (NIH).
After 24 h, the glands were irradiated with 4 Gy and incubated SMG with DarkZone dye to measure intracellular aldehydes. After 3 h, the aldehydic load in the irradiated vehicle control-treated SMG was more than 4-fold greater than the non-irradiated vehicle control-treated SMG.

ALDH1A1 [2] = molecular target: T1, ALDH1A1 (Homo sapiens, UniProt P00352); experiment: ALDH fluorescence-coupled enzymatic assay, all-trans-retinal substrate, ALDH1A1; assay type: biochemical
T1 sequence (P00352 1-501): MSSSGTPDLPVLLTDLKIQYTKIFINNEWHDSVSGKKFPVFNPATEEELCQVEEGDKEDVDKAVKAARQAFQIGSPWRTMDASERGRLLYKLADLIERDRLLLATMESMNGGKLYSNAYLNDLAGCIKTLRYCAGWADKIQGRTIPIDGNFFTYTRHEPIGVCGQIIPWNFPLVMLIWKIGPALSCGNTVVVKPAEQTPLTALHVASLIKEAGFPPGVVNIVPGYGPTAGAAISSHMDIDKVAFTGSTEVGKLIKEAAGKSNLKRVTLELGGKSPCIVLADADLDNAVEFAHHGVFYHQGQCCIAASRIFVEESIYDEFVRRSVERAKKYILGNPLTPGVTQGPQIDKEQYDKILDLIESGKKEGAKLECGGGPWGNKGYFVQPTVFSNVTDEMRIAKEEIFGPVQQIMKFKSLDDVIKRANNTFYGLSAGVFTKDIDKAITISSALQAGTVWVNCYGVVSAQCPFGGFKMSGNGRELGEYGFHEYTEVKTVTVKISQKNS
Procedure: Assay conditions were modified from the original enzyme assay protocol above using 50 mM NaPPi buffer (pH 7.4), 2.5 mM NAD^+, 10 mM acetaldehyde or all-trans-retinal substrate with the addition of 1 U/mL diaphorase and 0.1 mM resazurin for the secondary reaction. Measurements were collected in triplicate at 25° C.

[3] = human, 2 g/d oral Alda-341 for 2 weeks
From the text: Saliva and plasma samples were collected at baseline, and at the time of surgery, and normal salivary gland tissue was collected at the time of surgery.
Patients were required to be between 18 to 85 years of age, have elected to undergo surgery for recent diagnosis of parotid or submandibular gland tumor, and qualified for anesthesia. […] Patients were excluded from study participation if nursing or pregnant or diagnosed with kidney disease, end stage liver disease, metastatic cancer, or any unstable medical condition. […] Blood and saliva samples were collected at baseline and on the day of surgery. Normal and tumor salivary gland tissue were collected during surgery. Drug levels in tissue, plasma, and saliva were measured by the GCMS method described herein.
An aliquot of the heptane layer was used for analysis. […] Samples volumes of 1 μL splitless were injected with an inlet temperature of 220° C. The flow rate was constant at 1 mL/min. An Agilent DB-5MS UI column was used (30 m length, 0.250 mm inner diameter, 0.25 micron film). […] Calibration curves were linear from 4 to 8000 ng/mL.

ALDH1A1 [4] = molecular target: T1, ALDH1A1; experiment: ALDH enzymatic assay, recombinant ALDH1A1; assay type: biochemical; details: 5 μg/ml recombinant enzyme, 10 mM acetaldehyde, 20 μM Alda-341
Procedure: as §1

ALDH3A2, sequence (P51648 whole entry): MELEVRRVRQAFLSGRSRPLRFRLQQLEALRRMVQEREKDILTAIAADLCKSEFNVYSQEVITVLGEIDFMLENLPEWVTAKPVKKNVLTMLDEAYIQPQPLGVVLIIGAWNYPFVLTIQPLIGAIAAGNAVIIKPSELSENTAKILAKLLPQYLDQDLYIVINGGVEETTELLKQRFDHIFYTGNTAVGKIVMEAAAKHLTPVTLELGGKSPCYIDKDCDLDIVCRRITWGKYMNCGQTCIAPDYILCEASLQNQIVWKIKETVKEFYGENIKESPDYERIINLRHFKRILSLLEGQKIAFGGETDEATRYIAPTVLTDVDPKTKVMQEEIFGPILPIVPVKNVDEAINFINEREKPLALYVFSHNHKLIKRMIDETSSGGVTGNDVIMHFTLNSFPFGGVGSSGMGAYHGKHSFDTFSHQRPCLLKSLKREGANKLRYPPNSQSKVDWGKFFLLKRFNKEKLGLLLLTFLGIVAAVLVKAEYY

## C=C(C)[C@H]1CC=C(C)CC1 [Alda-341, D-limonene]
ALDH3A2
  catalytic activity of ALDH3A2: did not increase
[1]
  aldehydic load after radiation: reduced the aldehydic load to almost non-irradiated levels
ALDH1A1 [2]
  catalytic activity of all trans-retinal in ALDH1A1: did not increase
[3]
  average plasma drug levels after treatment: 144.3 ng/mL
ALDH1A1 [4]
  catalytic activity of ALDH1A1: did not increase
